Results reported in US20050250677A1, “Glycopeptide antibiotic derivatives” (priority 2002, published 2005).
Where two headings read alike, the source gives them in different places.

Experiments:
[1] = test system: human lymphocyte Molt4/clone 8; assay: Cytostatic activity assay, Molt4/clone 8 cells; type: cell-based; details: read-out: IC50 Molt4/C8 (compound concentration required to inhibit tumor cell proliferation by 50%)
HEL cells [2] = details: anti-VZV table
HIV-2(ROD) = assay: Inhibition of HIV-2 (ROD)-induced cytopathicity (giant cell formation) in CEM cells; type: cell-based; details: read-out: EC50 HIV-2 (concentration required to inhibit HIV-induced giant cell formation by 50%); HIV-2, CEM cell cultures
Method: (§1) A variety of glycopeptide antibiotic derivatives of vancomycin, eremomycin and teicoplanin including their aglycon derivatives were evaluated for their inhibitory activity against HIV-1 (IIIB) and HIV-2(ROD) in CEM cell cultures.

human lymphocyte CEM = assay: Cytostatic activity assay, CEM cells; type: cell-based; details: read-out: IC50 CEM (compound concentration required to inhibit tumor cell proliferation by 50%)
murine leukemia L1210 = assay: Cytostatic activity assay, L1210 cells; type: cell-based; details: read-out: IC50 L1210 (compound concentration required to inhibit tumor cell proliferation by 50%)
HEL cells [3] = details: read-out: CC50 (HEL); HEL cells; anti-VZV table
HIV-1 (IIIB) = assay: Inhibition of HIV-1 (IIIB)-induced cytopathicity (giant cell formation) in CEM cells; type: cell-based
Method: as §1

VZV (wild-type strains) = assay: Anti-VZV assay (wild-type strains): virus-induced cytopathicity in HEL cell cultures; type: cell-based, varicella-zoster virus; details: HEL cell cultures
[4] = read-out: EC50 HIV-1 (concentration required to inhibit HIV-induced giant cell formation by 50%), HIV-1, CEM cell cultures
[5] = VZV strain OKA, read-out: EC50 VZV (OKA)
[6] = VZV strain YS, read-out: EC50 VZV (YS)

| SMILES | IC50 [1] [µM] | MTC (HEL) (HEL cells [2]) | EC50 (HIV-2(ROD)) [µM] | IC50 (human lymphocyte CEM) [µM] | IC50 (murine leukemia L1210) [µM] | CC50 (HEL cells [3]) [µM] | EC50 (HIV-1 (IIIB); [4]) [µM] | EC50 (VZV (wild-type strains); [5]) [µM] | EC50 (VZV (wild-type strains); [6]) [µM] | EC50 (HIV-1 (IIIB); HIV-1 (IIIB), CEM cell cultures, read-out: EC50 against HIV-1) [µM] |
| --- | --- | --- | --- | --- | --- | --- | --- | --- | --- | --- |
| NC1C(=O)NC2Cc3ccc(c(Cl)c3)Oc3cc4cc(c3O)Oc3ccc(cc3Cl)C(O)C3NC(=O)C(NC(=O)C4NC(=O)C(NC2=O)c2cc(O)cc(c2)Oc2cc1ccc2O)c1ccc(O)c(c1)-c1c(cc(O)c(CN2CCN(N=Cc4ccc(Cl)cc4)CC2)c1O)C(C(=O)O)NC3=O (centres unmarked) [Compound 17] | > 100 | ≧20-200 μM | 22 ± 3.5 | > 100 | 97 ± 4.3 | > 50 | 8 ± 2.8 | 4.1 | 4.2 | – |
| CCCCCCCCCCCNC1C(=O)NC2Cc3ccc(c(Cl)c3)Oc3cc4cc(c3O)Oc3ccc(cc3Cl)C(O)C3NC(=O)C(NC(=O)C4NC(=O)C(NC2=O)c2cc(O)cc(c2)Oc2cc1ccc2O)c1ccc(O)c(c1)-c1c(O)cc(O)cc1C(C(=O)NCCCN(C)C)NC3=O (centres unmarked) [Compound 32] | 35 ± 2 | 20 µM | 12.5 ± 3.5 | 90 ± 27 | 23 ± 7 | 30 | 5.5 ± 2.1 | ≥ 5 | 2.3 | – |
| CCCCCCCCCCNC(=O)C1NC(=O)C2NC(=O)C(NC(=O)C3NC(=O)C4NC(=O)C(Cc5ccc(c(Cl)c5)Oc5cc3cc(c5O)Oc3ccc(cc3Cl)C2O)NC(=O)C(N)c2ccc(O)c(c2)Oc2cc(O)cc4c2)c2ccc(O)c(c2)-c2c1cc(O)c(CNCCCN(C)C)c2O (centres unmarked) [Compound 20] | 58 ± 12 | ≧5-20 μM | 44 ± 1.4 | 53 ± 11 | 17 ± 9 | 169 | 4.5 ± 0.7 | 2 | 2.3 | – |
| CCCCc1ccc(CNCc2c(O)cc3c(c2O)-c2cc(ccc2O)C2NC(=O)C4NC(=O)C5NC(=O)C(Cc6ccc(c(Cl)c6)Oc6cc4cc(c6O)Oc4ccc(cc4Cl)C(O)C(NC2=O)C(=O)NC3C(=O)NC)NC(=O)C(N)c2ccc(O)c(c2)Oc2cc(O)cc5c2)cc1 (centres unmarked) [Compound 48] | > 100 | – | 12.3 ± 6.8 | > 100 | > 100 | – | 9.7 ± 9 | – | – | – |
| CCCCCCCCCCNC(=O)C(N)CCCCNC(=O)C1NC(=O)C2NC(=O)C(NC(=O)C3NC(=O)C4NC(=O)C(Cc5ccc(c(Cl)c5)Oc5cc3cc(c5O)Oc3ccc(cc3Cl)C2O)NC(=O)C(N)c2ccc(O)c(c2)Oc2cc(O)cc4c2)c2ccc(O)c(c2)-c2c(O)cc(O)cc21 (centres unmarked) [Compound 23] | 22 ± 22 | – | 5.5 ± 0.7 | 58 ± 35 | 5.7 ± 0.27 | – | 2.6 ± 2 | – | – | – |
| CCCCCCCCCC[N+](C)(C)CCCNCc1c(O)cc2c(c1O)-c1cc(ccc1O)C1NC(=O)C3NC(=O)C4NC(=O)C(Cc5ccc(c(Cl)c5)Oc5cc3cc(c5O)Oc3ccc(cc3Cl)C(O)C(NC1=O)C(=O)NC2C(=O)NCCCN(C)C)NC(=O)C(N)c1ccc(O)c(c1)Oc1cc(O)cc4c1 (centres unmarked) [Compound 34] | 68 ± 1 | – | 4.5 ± 0.7 | 50 ± 8 | 23 ± 11 | – | 2.7 ± 1.84 | – | – | – |
| CCCCCCCCCCNCc1c(O)cc2c(c1O)-c1cc(ccc1O)C1NC(=O)C3NC(=O)C4NC(=O)C(Cc5ccc(c(Cl)c5)Oc5cc3cc(c5O)Oc3ccc(cc3Cl)C(O)C(NC1=O)C(=O)NC2C(=O)NCCCN1CCCCC1C)NC(=O)C(N)c1ccc(O)c(c1)Oc1cc(O)cc4c1 (centres unmarked) [Compound 22] | 182 ± 31 | – | 7 | 211 ± 1 | 57 ± 15 | – | 1.3 ± 0.92 | – | – | – |
| CCCCc1ccc(CNCc2c(O)cc3c(c2O)-c2cc(ccc2O)C2NC(=O)C4NC(=O)C(CC(N)=O)NC(=O)C(NC(=O)C(CC(C)C)NC)C(O)c5ccc(c(Cl)c5)Oc5cc4cc(c5OC4OC(CO)C(O)C(O)C4OC4CC(C)(N)C(O)C(C)O4)Oc4ccc(cc4)C(OC4CC(C)(N)C(O)C(C)O4)C(NC2=O)C(=O)NC3C(=O)NC)cc1 (centres unmarked) [Compound 3] | 24 ± 18 | – | 20 | 95 ± 14.1 | 22 ± 0.3 | – | 5.1 ± 3.3 | – | – | – |
| CN[C@H](CC(C)C)C(=O)N[C@H]1C(=O)N[C@@H](CC(N)=O)C(=O)N[C@H]2C(=O)N[C@H]3C(=O)N[C@H](C(=O)N[C@H](C(=O)O)c4cc(O)cc(O)c4-c4cc3ccc4O)[C@H](O)c3ccc(c(Cl)c3)Oc3cc2cc(c3O)Oc2ccc(cc2Cl)[C@H]1O [Vancomycin aglycon] | > 500 | – | 250 | > 500 | > 500 | – | 65 ± 7.1 | – | – | – |
| CCCCCCCCCC[N+](C)(C)CCCNCc1c(O)cc2c(c1O)-c1cc(ccc1O)C1NC(=O)C3NC(=O)C4NC(=O)C(Cc5ccc(cc5)Oc5cc3cc(c5OC3OC(C(=O)NCCCN(C)C)C(O)C(O)C3N)Oc3ccc(cc3Cl)C(O)C(NC1=O)C(=O)NC2C(=O)NCCCN(C)C)NC(=O)C(NC)c1ccc(O)c(c1)Oc1cc(O)c(Cl)c4c1 (centres unmarked) [Compound 14] | 22 ± 4.7 | – | ≥ 20 | 92 ± 5 | 27 ± 0.3 | – | 3.5 ± 0.7 | – | – | – |
| NCCCCCCCCCCNC(=O)C1NC(=O)C2NC(=O)C(NC(=O)C3NC(=O)C4NC(=O)C(Cc5ccc(c(Cl)c5)Oc5cc3cc(c5O)Oc3ccc(cc3Cl)C2O)NC(=O)C(N)c2ccc(O)c(c2)Oc2cc(O)cc4c2)c2ccc(O)c(c2)-c2c(O)cc(O)cc21 (centres unmarked) [Compound 43] | 225 ± 8 | – | 12.5 ± 3.5 | 402 ± 138 | ≥ 500 | – | 6.5 ± 0.7 | – | – | – |
| CCCCc1ccc(CNC2C(Oc3c4cc5cc3Oc3ccc(cc3Cl)C(O)C3NC(=O)C(NC(=O)C5NC(=O)C5NC(=O)C(Cc6ccc(cc6)O4)NC(=O)C(NC)c4ccc(O)c(c4)Oc4cc(O)c(Cl)c5c4)c4ccc(O)c(c4)-c4c(O)cc(O)cc4C(C(=O)NCCCN(C)C)NC3=O)OC(C(=O)NCCCN(C)C)C(O)C2O)cc1 (centres unmarked) [Compound 12] | 66 ± 20 | – | > 50 | > 250 | 36 ± 14 | – | 12 ± 3.5 | – | – | – |
| CCCCCCCCCC[N+](C)(C)CCCNCc1c(O)cc2c(c1O)-c1cc(ccc1O)C1NC(=O)C3NC(=O)C4NC(=O)C(Cc5ccc(c(Cl)c5)Oc5cc3cc(c5O)Oc3ccc(cc3Cl)C(O)C(NC1=O)C(=O)NC2C(=O)NCCCCCCN)NC(=O)C(N)c1ccc(O)c(c1)Oc1cc(O)cc4c1 (centres unmarked) [Compound 42] | 72 ± 6 | – | 7 | 66 ± 2 | 38 ± 1 | – | 1.8 ± 0.49 | – | – | – |
| C[C@@H](NC(=O)[C@@H](C)NC(=O)CCCCCNC(=O)C1NC(=O)C2NC(=O)C(NC(=O)C3NC(=O)C4NC(=O)C(Cc5ccc(c(Cl)c5)Oc5cc3cc(c5O)Oc3ccc(cc3Cl)C2O)NC(=O)C(NC(=O)OC(C)(C)C)c2ccc(O)c(c2)Oc2cc(O)cc4c2)c2ccc(O)c(c2)-c2c(O)cc(O)cc21)C(=O)O (some centres unmarked) [Compound 44] | > 500 | – | 25 ± 7 | > 500 | > 500 | – | 12.5 ± 3.5 | – | – | – |
| CCCCCCCCCC[N+](C)(C)CCCNCc1c(O)cc2c(c1O)-c1cc(ccc1O)C1NC(=O)C3NC(=O)C(CC(N)=O)NC(=O)C(NC(=O)C(CC(C)C)NC)C(O)c4ccc(c(Cl)c4)Oc4cc3cc(c4OC3OC(CO)C(O)C(O)C3OC3CC(C)(N)C(O)C(C)O3)Oc3ccc(cc3)C(OC3CC(C)(N)C(O)C(C)O3)C(NC1=O)C(=O)NC2C(=O)NCCCN(C)C (centres unmarked) [Compound 4] | 33 ± 5 | – | > 20 | 27 ± 7 | 16 ± 6 | – | 7 | – | – | – |
| CNCc1c(O)cc2c(c1O)-c1cc(ccc1O)C1NC(=O)C3NC(=O)C4NC(=O)C(Cc5ccc(c(Cl)c5)Oc5cc3cc(c5O)Oc3ccc(cc3Cl)C(O)C(NC1=O)C(=O)NC2C(=O)NC)NC(=O)C(N)c1ccc(O)c(c1)Oc1cc(O)cc4c1 (centres unmarked) [Compound 45] | > 500 | – | 17.5 ± 10.6 | > 500 | > 500 | – | 15 ± 7.1 | – | – | – |
| CCCCCCCCCC[N+](C)(C)CCCNC(=O)C1NC(=O)C2NC(=O)C(NC(=O)C3NC(=O)C(CC(N)=O)NC(=O)C(NC(=O)C(CC(C)C)NC)C(O)c4ccc(c(Cl)c4)Oc4cc3cc(c4OC3OC(CO)C(O)C(O)C3OC3CC(C)(N)C(O)C(C)O3)Oc3ccc(cc3Cl)C2O)c2ccc(O)c(c2)-c2c(O)cc(O)cc21 (centres unmarked) [Compound 2] | 53 ± 1 | – | > 50 | 172 ± 15 | 60 ± 8 | – | 5.5 ± 0.7 | – | – | 12 |
| O=C(NC1C(=O)NC2Cc3ccc(c(Cl)c3)Oc3cc4cc(c3O)Oc3ccc(cc3Cl)C(O)C3NC(=O)C(NC(=O)C4NC(=O)C(NC2=O)c2cc(O)cc(c2)Oc2cc1ccc2O)c1ccc(O)c(c1)-c1c(O)cc(O)cc1C(C(=O)O)NC3=O)OC12CC3CC(CC(C3)C1)C2 (centres unmarked) [Compound 49] | 25 ± 0.99 | – | 6 ± 1.4 | 104 ± 3 | 22 ± 0.1 | – | 13 ± 9.9 | – | – | – |
| CNC(CC(C)C)C(=O)NC1C(=O)NC(CC(N)=O)C(=O)NC2C(=O)NC3C(=O)NC(C(=O)NC(C(=O)O)c4cc(O)cc(O)c4-c4cc3ccc4O)C(O)c3ccc(cc3)Oc3cc2cc(c3O)Oc2ccc(cc2Cl)C1O (centres unmarked) [Eremomycin aglycon] | > 500 | – | 250 | > 500 | > 500 | – | 50 ± 28 | – | – | – |
| CNC1C(=O)NC2Cc3ccc(cc3)Oc3cc4cc(c3OC3OC(C(=O)NCCC[N+](C)(C)Cc5ccc(-c6ccccc6)cc5)C(O)C(O)C3N)Oc3ccc(cc3Cl)C(O)C3NC(=O)C(NC(=O)C4NC(=O)C(NC2=O)c2cc(cc(O)c2Cl)Oc2cc1ccc2O)c1ccc(O)c(c1)-c1c(OC2OC(CO)C(O)C(O)C2O)cc(O)cc1C(C(=O)NCCC[N+](C)(C)Cc1ccc(-c2ccccc2)cc1)NC3=O (centres unmarked) [Compound 10] | 27 ± 14 | – | > 10 | 32 ± 5 | 44 ± 2.9 | – | 4 ± 1.4 | – | – | – |
